Measurements reported in paper PMC8819633 (Journal of medicinal chemistry, 2021).

System: total AKT (T-AKT) and phosphorylated AKT (P-AKT (S473))
Test: Western blot of AKT degradation in BT474 cells
Format: cell-based, human
Conditions: for T-AKT and P-AKT protein degradation (western blot): 24 h, 1, 5 and 10 μM (12-13: 1, 3 and 10 μM)

Compound | T-AKT and P-AKT protein degradation (western blot) | further results
3-(((S)-2-(4-Chlorophenyl)-3-(4-((5R,7R)-7-hydroxy-5-methyl-6,7-dihydro-5H-cyclopenta[d]pyrimidin-4-yl)piperazin-1-yl)-3-oxopropyl)amino)-N-(2-((2-(2,6-dioxopiperidin-3-yl)-1,3-dioxoisoindolin-4-yl)amino)ethyl)propenamide [Compound 19] | marginally effective in inducing AKT degradation at 1–10 μM | –
C[C@@H]1C[C@@H](O)c2ncnc(N3CCN(C(=O)[C@H](CNCCC(=O)NCCCCCCCCNc4cccc5c4C(=O)N(C4CCC(=O)N(C)C4=O)C5=O)c4ccc(Cl)cc4)CC3)c21 (stereo partly drawn) [Compound 62, 3-(((S)-2-(4-Chlorophenyl)-3-(4-((5R,7R)-7-hydroxy-5-methyl-6,7-dihydro-5H-cyclopenta[d]pyrimidin-4-yl)piperazin-1-yl)-3-oxopropyl)amino)-N-(8-((2-(1-methyl-2,6-dioxopiperidin-3-yl)-1,3-dioxoisoindolin-4-yl)amino)octyl)propenamide] | – | extent of T-AKT degradation in concentration-response (24 h, indicated concentrations): did not degrade T-AKT
3-(((S)-2-(4-Chlorophenyl)-3-(4-((5R,7R)-7-hydroxy-5-methyl-6,7-dihydro-5H-cyclopenta[d]pyrimidin-4-yl)piperazin-1-yl)-3-oxopropyl)amino)-N-(6-((2-(2,6-dioxopiperidin-3-yl)-1,3-dioxoisoindolin-4-yl)amino)hexyl)propenamide [Compound 23] | highly effective in reducing T-AKT and P-AKT protein levels | –
3-(((S)-2-(4-Chlorophenyl)-3-(4-((5R,7R)-7-hydroxy-5-methyl-6,7-dihydro-5H-cyclopenta[d]pyrimidin-4-yl)piperazin-1-yl)-3-oxopropyl)amino)-N-(8-((2-(2,6-dioxopiperidin-3-yl)-1-oxoisoindolin-4-yl)amino)octyl)propenamide [Compound 28] | completely abolished AKT degradation activity | –
Nc1cccc2c1C(=O)N(C1CCC(=O)NC1=O)C2=O (centres unmarked) [POM, pomalidomide, reference compound] | – | T-AKT protein level (western blot) (24 h, controls at 1 μM): no detectable effect on the T-AKT protein level
Cc1ncsc1-c1ccc(CNC(=O)[C@@H]2C[C@@H](O)CN2C(=O)[C@@H](NC(=O)CCCCNC(=O)CCNC[C@@H](C(=O)N2CCN(c3ncnc4c3[C@H](C)C[C@H]4O)CC2)c2ccc(Cl)cc2)C(C)(C)C)cc1 [Compound 6, (2S,4R)-1-((S)-2-(5-(3-(((S)-2-(4-Chlorophenyl)-3-(4-((5R,7R)-7-hydroxy-5-methyl-6,7-dihydro-5H-cyclopenta[d]pyrimidin-4-yl)-piperazin-1-yl)-3-oxopropyl)amino)propanamido)pentanamido)-3,3-dimethylbutanoyl)-4-hydroxy-N-(4-(4-methylthiazol-5-yl)-benzyl)pyrrolidine-2-carboxamide] | concentration-dependently reduced the protein levels of T-AKT and P-AKT | –
Cc1ncsc1-c1ccc(CNC(=O)[C@@H]2C[C@@H](O)CN2C(=O)[C@@H](NC(=O)COCCOCCNC(=O)CCNC[C@@H](C(=O)N2CCN(c3ncnc4c3[C@H](C)C[C@H]4O)CC2)c2ccc(Cl)cc2)C(C)(C)C)cc1 [Compound 4, (2S,4R)-1-((2S,18S)-2-(tert-Butyl)-18-(4-chlorophenyl)-19-(4-((5R,7R)-7-hydroxy-5-methyl-6,7-dihydro-5H-cyclopenta[d]-pyrimidin-4-yl)piperazin-1-yl)-4,13,19-trioxo-6,9-dioxa-3,12,16-tri-azanonadecanoyl)-4-hydroxy-N-(4-(4-methylthiazol-5-yl)benzyl)-pyrrolidine-2-carboxamide] | less effective in AKT degradation | –
3-(((S)-2-(4-Chlorophenyl)-3-(4-((5R,7R)-7-hydroxy-5-methyl-6,7-dihydro-5H-cyclopenta[d]pyrimidin-4-yl)piperazin-1-yl)-3-oxopropyl)amino)-N-(7-((2-(2,6-dioxopiperidin-3-yl)-1,3-dioxoisoindolin-4-yl)amino)heptyl)propenamide [Compound 24] | highly effective in reducing T-AKT and P-AKT protein levels | –
